Here are results for four compounds from US7094770B2, “3′-or 2′-hydroxymethyl substituted nucleoside derivatives for treatment of hepatitis virus infections” (Pharmasset, Ltd., priority 2000, dated 2006).

One experiment concerns HSV. The note with it: literature; cited from earlier work.
Experiment [1] has as its target reverse transcriptase of human immunodeficiency virus (Human immunodeficiency virus type 1 group M subtype B, UniProt P03366). The conditions noted are these: tested as the 5′-triphosphate; cited from earlier work.
Experiment [2] concerns HBV. The note with it: background statement; cited from earlier work.
The subject of the next experiment is HIV. The note with it: literature; cited from earlier work.
The subject of experiment [3] is human cytomegalovirus (HCMV). The conditions noted are these: literature; cited from earlier work.
The subject of experiment [4] is murine leukemia virus (MuLV). The note with it: literature; cited from earlier work.
In experiment [5] the test system is Varicella zoster virus (VZV). The conditions noted are these: literature; cited from earlier work.
A further experiment relates to Epstein Barr virus (EBV). The conditions noted are these: literature; cited from earlier work.
The test system of experiment [6] is HBV. The experiment in a line: Cell culture assay for anti-HBV activity (2.2.15 cells, HBV DNA in medium by Southern blot). The experiment is classed as cell-based, Hepatitis B virus. The conditions noted are these: "we discovered". The source says:
We follow the protocol described by Korba and Gerin(Antiviral Res., 1992, 19:55) and Pai et al. (Antimicrobial Agents Chemother., 1996, 40:380) which is used widely in the field. The HepG 2 2.2.15 cells contain a stably integrated HBV genome, the transcript from which serves as a template for viral replication. The cells produce virions which are elaborated into the medium. The production of the virion DNA is monitored by analysis of medium by Southern blotting. Drugs which inhibit viral replication reduce the levels of virion DNA in the medium, relative to controls.
Confluent cells in 24 well tissue culture dishes are treated with test compounds starting at 1 nM and extending logarithmically to 10 μM (1 nM, 3.2, 10 nM, 32, 100 nM, 1 μM, 10 μM […]). Medium is changed […] every 3 days and DNA extracted from the 3, 6, and […] day samples. The virions are concentrated by polyethylene glycol precipitation (equal volume addition of PEG 8000). After cooling on ice the samples are spun and the pellets treated with SDS and Proteinase K followed by Phenol:Chloroform extraction and ethanol precipitation of the DNA. The DNA is analyzed for HBV sequences by Southern hybridization. The probe used for the analysis is a ^32P labeled Eco RI fragment from the HBV clone described by Korba et al. 3TC is used as a positive control compound with known activity against HBV.
System: The most widely used system for the study of anti-HBV agents is the hepatoma cell culture system with the HBV genome. These cells are designated as the 2.2.15 cells, AD38 cells and AD79 cells. The 2.2.15 cells were generated by the transfection of the human hepatoma cells—HepG2 with HBV DNA. (Sells, et al., Proc. Natl. Acad. Sci. USA 84:1005–1009, 1987) HBV viral replication takes place in these cells. The HBV replication can be monitored intracellularly as well as extracellularly in these cells.
Assay for Anti-HBV agents: 2.215 cells are grown in multi-well dishes in RPMI medium supplemented with 4% fetal bovine serum. After 3 to 4 days of growing the cells, they are treated with varying concentrations of the test compound(s). The test compounds are dissolved in DMSO or sterile water. Cultures without the addition of the test compounds serve as controls. The addition of the test compound(s) is repeated at 3-day intervals. The medium is changed and replaced with appropriate concentration of the test compound. At the end of the 9-day treatment period, the culture medium is harvested and processed for viral DNA. The viral DNA thus obtained is analyzed by Southern blot analysis. After the Southern transfer, the blot is subjected to hybridization to an HBV specific probe to detect HBV DNA. The hybriodization is carried out overnight. After the hybridization, free probe is removed by washing of the blots. The specific hybridization is visualized by autoradiography. Inhibition produced by the test compound is calculated with reference to the levels of HBV DNA in the control samples.

For another experiment, the system named is HSV-2. The conditions noted are these: literature; cited from earlier work.
Another experiment concerns HSV-1. The conditions noted are these: literature; cited from earlier work.

SMILES strings stand for the structures. Read-outs that look alike come from different tables or passages of the source.

In the case of `O=c1[nH]c(=O)n(C2O[C@H](CO)[C@@H](CO)[C@@H]2O)cc1C=CBr` (stereo partly drawn) [5-bromovinyl-1-(3-deoxy-3-hydroxymethyl-D-arabinofuranosyl)-uracil], the “Activity against HSV (in words)” value in the experiment with HSV is on record as “active”.

For the compound `Cc1cn([C@H]2C[C@H](N=[N+]=[N-])[C@@H](CO)O2)c(=O)[nH]c1=O` [Zidovudine], in [1], the “Inhibition of HIV reverse transcriptase (in words)” value is on record as “potent inhibitor”. In addition, the “Activity against HBV (in words)” value with HBV [2] is “inactive”.

In the case of `Nc1ccn([C@H]2C[C@H](CO)[C@@H](CO)O2)c(=O)n1` [2′,3′-dideoxy-3′-hydroxymethyl-cytidine], the “Activity against HIV (in words)” value in the experiment on HIV was “good activity”. In the experiment with HSV, the “Activity against HSV (in words)” value was “active”.

Take `Cc1cn([C@H]2C[C@H](CO)[C@@H](CO)O2)c(=O)[nH]c1=O` [3′-deoxy-3′-hydroxymethylthymidine]: the “Activity against HIV (in words)” value with HIV is reported as “devoid of activity”. Moreover, in [3], the “Activity against HCMV (in words)” value is reported as “devoid of activity”. Moreover, in [4], the “Activity against MuLV (in words)” value was “devoid of activity”. In addition, the “Activity against VZV (in words)” value in [5] is “devoid of activity”. Also, the “Activity against EBV (in words)” value in the experiment on Epstein Barr virus (EBV) is given as “devoid of activity”. Also, the “Activity against HBV (in words)” value in the experiment with HBV [6] was “potent agent”. In the experiment with HSV-2, the “Activity against HSV-2 (in words)” value is “devoid of activity”. Besides, the “Activity against HSV-1 (in words)” value with HSV-1 is given as “devoid of activity”.
